# According to patent publication US20250368645A1, “BETA CARBOLINE ANALOGUES AS SELECTIVE AND BIASED KAPPA OPIOID RECEPTORS AGONISTS FOR TREATING VARIOUS ASSOCIATED PATHOPHYSIOLOGICAL CONDITIONS” (COUNCIL OF SCIENTIFIC AND INDUSTRIAL RESEARCH, priority 2022, published 2025):
# Assays:
# Type in all cases: cell-based
# MOR = MOR (Homo sapiens, UniProt P35372); assay: GloSensor assay at MOR; conditions: given as Log IC50 (negative values)
# DOR = DOR (Homo sapiens, UniProt P41143); assay: GloSensor assay at DOR; conditions: given as Log IC50 (negative values)
# Sequence of DOR (P41143 whole entry): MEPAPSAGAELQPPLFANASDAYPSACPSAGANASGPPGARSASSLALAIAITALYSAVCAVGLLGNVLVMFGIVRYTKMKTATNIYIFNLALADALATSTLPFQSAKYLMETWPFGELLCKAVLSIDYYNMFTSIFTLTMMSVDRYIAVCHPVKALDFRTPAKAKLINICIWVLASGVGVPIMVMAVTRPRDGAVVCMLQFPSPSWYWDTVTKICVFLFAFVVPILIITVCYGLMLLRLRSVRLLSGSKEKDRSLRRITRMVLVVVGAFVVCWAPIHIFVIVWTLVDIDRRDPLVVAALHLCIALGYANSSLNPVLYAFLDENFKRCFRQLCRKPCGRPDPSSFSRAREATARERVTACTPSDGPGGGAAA
# human KOR = human KOR (Homo sapiens, UniProt P41145); assay: GloSensor assay, Gi-mediated cAMP inhibition in HEK-293T cells transfected with human KOR; conditions: given as Log IC50 (negative values); agonist activity, inhibition of FSK-stimulated cAMP; read-out: GloSensor Assay (Log IC50) KOR (converted)
# Sequence of human KOR (P41145 whole entry): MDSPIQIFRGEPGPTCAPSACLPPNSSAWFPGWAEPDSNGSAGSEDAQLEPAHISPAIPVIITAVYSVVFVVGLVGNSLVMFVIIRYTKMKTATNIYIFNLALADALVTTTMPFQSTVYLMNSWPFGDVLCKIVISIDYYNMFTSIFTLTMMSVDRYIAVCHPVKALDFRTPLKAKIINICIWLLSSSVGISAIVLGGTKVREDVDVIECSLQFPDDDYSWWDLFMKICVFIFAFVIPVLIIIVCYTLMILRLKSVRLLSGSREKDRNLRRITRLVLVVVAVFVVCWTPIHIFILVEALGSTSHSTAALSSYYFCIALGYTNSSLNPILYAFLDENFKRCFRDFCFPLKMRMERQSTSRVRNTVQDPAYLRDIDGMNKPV
# Sequence of MOR (P35372 whole entry): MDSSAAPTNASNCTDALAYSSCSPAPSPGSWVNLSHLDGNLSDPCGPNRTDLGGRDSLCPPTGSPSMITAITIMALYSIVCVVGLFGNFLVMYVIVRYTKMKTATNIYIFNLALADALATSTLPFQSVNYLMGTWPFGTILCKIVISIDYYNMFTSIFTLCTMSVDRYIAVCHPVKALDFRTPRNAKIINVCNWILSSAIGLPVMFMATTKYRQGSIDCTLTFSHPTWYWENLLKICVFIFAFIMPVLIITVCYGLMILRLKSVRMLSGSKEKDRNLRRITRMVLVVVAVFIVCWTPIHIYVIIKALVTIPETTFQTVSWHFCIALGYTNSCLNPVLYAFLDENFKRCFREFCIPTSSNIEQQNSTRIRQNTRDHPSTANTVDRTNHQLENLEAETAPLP
Compound,IC50 (MOR),IC50 (DOR),IC50 (human KOR)
"Fc1ccc(-c2c3c4[nH]c5ccccc5c4cc[n+]3cn2-c2ccc(Cl)cc2)cc1 [8agc, 2-(4-Chlorophenyl)-1-(4-fluorophenyl)-2,11-dihydrolmidazo[1′,5′:1,2]pyrido[3,4-b]indol-4-ium chloride]",> 10 µM,> 10 µM,> 10 µM
"Fc1ccc(-n2c[n+]3ccc4c5ccccc5[nH]c4c3c2-c2ccc(Br)cc2)cc1F [8abm, 1-(4-Bromophenyl)-2-(3,4-difluorophenyl)-2,11-dihydroimidazo[1′,5′:1,2]pyrido[3,4-b]indol-4-ium chloride]",> 10 µM,> 10 µM,> 10 µM
"COC(=O)c1cc2c3ccccc3[nH]c2c2c(-c3ccc(Br)cc3)n(-c3ccc(F)cc3)c[n+]12 [8bbd, 1-(4-Bromophenyl)-2-(4-fluorophenyl)-5-(methoxycarbonyl)-2,11-dihydroimidazo[1′,5′:1,2]pyrido[3,4-b]indol-4-iumchloride]",> 10 µM,> 10 µM,> 10 µM
"Fc1ccc(-n2c[n+]3c4ccccc4c4c5ccccc5[nH]c4c3c2-c2ccccc2)cc1 [12ad, 2-(4-Fluorophenyl)-1-phenyl-2,13-dihydroimidazo[1,5-a]indolo[2,3-c]quinolin-4-ium chloride]",> 10 µM,> 10 µM,> 10 µM
"COc1ccc(Cn2c[n+]3ccc4c5ccccc5[nH]c4c3c2-c2ccc(Cl)cc2)cc1 [9abe, 1-(4-Chlorophenyl)-2-(4-methoxybenzyl)-2,11-dihydrolmidazo[1′,5′:1,2]pyrido[3,4-b]indol-4-ium chloride]",> 10 µM,> 10 µM,0.0759 µM
"COc1ccc(-n2c[n+]3ccc4c5ccccc5[nH]c4c3c2-c2ccc(Br)cc2)cc1 [8abg, 1-(4-Bromophenyl)-2-(4-methoxyphenyl)-2,11-dihydrolmidazo[1′,5′:1,2]pyrido[3,4-b]indol-4-ium chloride]",> 10 µM,> 10 µM,> 10 µM
"Clc1ccccc1-c1c2c3[nH]c4ccccc4c3cc[n+]2cn1-c1ccccc1 [8aea, 1-(2-Chlorophenyl)-2-phenyl-2,11-dihydroimidazo[1′,5′:1,2]pyrido[3,4-b]indol-4-ium chloride]",> 10 µM,> 10 µM,> 10 µM
"COC(=O)c1cc2c3ccccc3[nH]c2c2c(-c3ccc(Br)cc3)n(-c3ccc(Cl)cc3)c[n+]12 [8bbc, 1-(4-Bromophenyl)-2-(4-chlorophenyl)-5-(methoxycarbonyl)-2,11-dihydroimidazo[1′,5′:1,2]pyrido[3,4-b]indol-4-iumchloride]",> 10 µM,> 10 µM,> 10 µM
"COc1ccc(Cn2c[n+]3ccc4c5ccccc5[nH]c4c3c2-c2ccc(Br)cc2)cc1OC [9aag, 1-(4-Bromophenyl)-2-(3,4-dimethoxybenzyl)-2,11-dihydroimidazo[1′,5′:1,2]pyrido[3,4-b]indol-4-ium chloride]",> 10 µM,> 10 µM,0.166 µM
"c1ccc(-n2c[n+]3ccc4c5ccccc5[nH]c4c3c2-c2cc3ccccc3o2)cc1 [8amd, 1-(Benzofuran-2-yl)-2-phenyl-2,11-dihydroimidazo[1′,5′:1,2]pyrido[3,4-b]indol-4-ium chloride]",> 10 µM,> 10 µM,0.0398 µM
"Brc1ccc(-n2c[n+]3ccc4c5ccccc5[nH]c4c3c2-c2ccccc2)cc1 [8aab, 2-(4-Bromophenyl)-1-phenyl-2,11-dihydroimidazo[1′,5′:1,2]pyrido[3,4-b]indol-4-ium chloride]",> 10 µM,> 10 µM,0.0661 µM
"Clc1ccc(-c2c3c4[nH]c5ccccc5c4cc[n+]3cn2Cc2ccsc2)cc1 [9acj, 1-(4-Chlorophenyl)-2-(thiophen-3-ylmethyl)-2,11-dihydroimidazo[1′,5′:1,2]pyrido[3,4-b]indol-4-ium chloride]",> 10 µM,> 10 µM,> 10 µM
"Fc1ccc(-n2c[n+]3ccc4c5ccccc5[nH]c4c3c2-c2cccc(F)c2)cc1 [8aid, 1-(3-Fluorophenyl)-2-(4-fluorophenyl)-2,11-dihydroimidazo[1′,5′:1,2]pyrido[3,4-b]indol-4-ium]",> 10 µM,> 10 µM,0.2 µM
"Fc1ccc(-c2c3c4[nH]c5ccccc5c4cc[n+]3cn2-c2ccc(F)cc2)cc1 [8agd, 1,2-Bis(4-fluorophenyl)-2,11-dihydroimidazo[1′,5′:1,2]pyrido[3,4-b]indol-4-ium chloride]",> 10 µM,> 10 µM,> 10 µM
"COc1ccc(-n2c[n+]3ccc4c5ccccc5[nH]c4c3c2-c2ccc(Cl)cc2)cc1 [8adg, 1-(4-Chlorophenyl)-2-(4-methoxyphenyl)-2,11-dihydroimidazo[1′,5′:1,2]pyrido[3,4-b]indol-4-ium chloride]",> 10 µM,> 10 µM,0.794 µM
"Clc1cccc(-n2c[n+]3ccc4c5ccccc5[nH]c4c3c2-c2ccccc2Br)c1 [8acf, 1-(2-Bromophenyl)-2-(3-chlorophenyl)-2,11-dihydroimidazo[1′,5′:1,2]pyrido[3,4-b]indol-4-ium chloride]",> 10 µM,> 10 µM,0.0631 µM

Compound,IC50 (MOR),IC50 (DOR),IC50 (human KOR)
"Brc1ccccc1-c1c2c3[nH]c4ccccc4c3cc[n+]2cn1-c1ccccc1 [8aca, 1-(2-Bromophenyl)-2-phenyl-2,11-dihydroimidazo[1′,5′:1,2]pyrido[3,4-b]indol-4-ium chloride]",> 10 µM,3.16 µM,0.2 µM
"Cn1c2ccccc2c2cc[n+]3cn(-c4ccc(Cl)cc4)c(-c4ccc(Cl)cc4)c3c21 [8ddc, 1,2-Bis(4-chlorophenyl)-11-methyl-2,11-dihydroimidazo[1′,5′:1,2]pyrido[3,4-b]indol-4-iumchloride]",> 10 µM,> 10 µM,> 10 µM
"Clc1ccc(-n2c[n+]3ccc4c5ccccc5[nH]c4c3c2-c2cccc(Cl)c2)cc1 [8afc, 1-(3-Chlorophenyl)-2-(4-chlorophenyl)-2,11-dihydrolmidazo[1′,5′:1,2]pyrido[3,4-b]indol-4-ium chloride]",> 10 µM,> 10 µM,0.316 µM
"Fc1ccc(-n2c[n+]3ccc4c5ccccc5[nH]c4c3c2-c2cccc(Cl)c2)cc1 [8afd, 1-(3-Chlorophenyl)-2-(4-fluorophenyl)-2,11-dihydroimidazo[1′,5′:1,2]pyrido[3,4-b]indol-4-ium chloride]",> 10 µM,> 10 µM,1.82 µM
"Fc1ccc(-c2c3c4[nH]c5ccccc5c4cc[n+]3cn2-c2cccc(Br)c2)cc1 [8age, 2-(3-Bromophenyl)-1-(4-fluorophenyl)-2,11-dihydroimidazo[1′,5′:1,2]pyrido[3,4-b]indol-4-ium chloride]",> 10 µM,> 10 µM,> 10 µM
"Fc1ccccc1-n1c[n+]2ccc3c4ccccc4[nH]c3c2c1-c1ccc(Br)cc1 [8abk, 1-(4-Bromophenyl)-2-(2-fluorophenyl)-2,11-dihydroimidazo[1′,5′:1,2]pyrido[3,4-b]indol-4-ium chloride]",> 10 µM,> 10 µM,0.0794 µM
"Clc1ccc(-c2c3c4[nH]c5ccccc5c4cc[n+]3cn2-c2cccc(Cl)c2)cc1 [8adf, 2-(3-Chlorophenyl)-1-(4-chlorophenyl)-2,11-dihydroimidazo[1′,5′:1,2]pyrido[3,4-b]indol-4-ium chloride]",> 10 µM,> 10 µM,> 10 µM
"Cc1ccc(-c2c3c4[nH]c5ccccc5c4c4ccccc4[n+]3cn2-c2ccc(F)cc2)cc1 [12bc, 2-(4-Fluorophenyl)-1-(p-tolyl)-2,13-dihydrolmidazo[1,5-a]indolo[2,3-c]quinolin-4-ium chloride]",> 10 µM,> 10 µM,> 10 µM
"Cn1c2ccccc2c2cc[n+]3cn(-c4ccc(Cl)cc4)c(-c4ccc(Br)cc4)c3c21 [8dbc, 1-(4-Bromophenyl)-2-(4-chlorophenyl)-11-methyl-2,11 dihydroimidazo[1′,5′:1,2]pyrido[3,4-b]indol-4-iumchloride]",> 10 µM,> 10 µM,> 10 µM
"Fc1ccc(-n2c[n+]3c4ccccc4c4c5ccccc5[nH]c4c3c2-c2ccc(Br)cc2)cc1 [12cc, 1-4-Bromphenyl)-2-(4-fluorophenyl)-2,13-dihydroimidazo[1,5-a]indolo[2,3-c]quinolin-4-ium chloride]",> 10 µM,> 10 µM,> 10 µM
"Clc1ccc(-n2c[n+]3ccc4c5ccccc5[nH]c4c3c2-c2ccccc2)cc1 [8aac, 2-(4-Chlorophenyl)-1-phenyl-2,11-dihydroimidazo[1′,5′:1,2]pyrido[3,4-b]indol-4-ium chloride]",> 10 µM,> 10 µM,0.126 µM
"Fc1ccc(-n2c[n+]3ccc4c5ccccc5[nH]c4c3c2-c2ccccc2)cc1 [8aad, 2-(4-Fluorophenyl)-1-phenyl-2,11-dihydroimidazo[1′,5′:1,2]pyrido[3,4-b]indol-4-ium chloride]",> 10 µM,> 10 µM,0.269 µM
"Clc1ccc(-c2c3c4[nH]c5ccccc5c4c4ccccc4[n+]3cn2-c2ccc(Cl)cc2)cc1 [12dd, 1,2-Bis(4-chlorophenyl)-2,13-dihydroimidazo[1,5-a]indolo[2,3-c]quinolin-4-ium chloride]",> 10 µM,> 10 µM,> 10 µM
"COC(=O)c1cc2c3ccccc3[nH]c2c2c(C)n(-c3ccc(F)cc3)c[n+]12 [8bpd, 2-(4-Fluorophenyl)-5-(methoxycarbonyl)-1-methyl-2,11-dihydroimidazo[1′,5′:1,2]pyrido[3,4-b]indol-4-ium chloride]",> 10 µM,> 10 µM,3.16 µM
"Clc1ccc(-n2c[n+]3c4ccccc4c4c5ccccc5[nH]c4c3c2-c2ccc(Br)cc2)cc1 [12bd, 1-(4-Bromophenyl)-2-(4-chlorophenyl)-2,13-dihydroimidazo[1,5-a]indolo[2,3-c]quinolin-4-ium chloride]",> 10 µM,> 10 µM,> 10 µM
